The values below come from paper PMC12394750, “2H-1,4-Benzoxazin-3(4H)-one linked 1,2,3-triazole derivatives and their study on inducing DNA damage in tumor cells” (Frontiers in Pharmacology, 2025).

Molecules are shown by their SMILES. Where only a bound is given, the exact number is not on record here.

The subject of data set [1] is Huh-7 (hepatocellular carcinoma). The data set is described as follows: CCK-8 cell viability / IC50, Huh-7. It counts as cell-based, human. The conditions noted are these: 72 h; for IC50 / viability at 50 µM: Homo sapiens, Huh-7; for IC50: CCK-8 dose-response; for Activity against Huh-7 cells (in words) / viability at 50 µM: 50 μM, CCK-8. As for the experimental part:
(§1) To assess the cytotoxic potential of the newly synthesized compounds c1–c20, a panel of human tumor cell lines—including Huh-7 (hepatocellular carcinoma), MCF-7 (breast cancer), and A549 (lung cancer)—was treated with each compound at a concentration of 50 μM for 72 h. Cell viability and cytotoxicity were evaluated using the CCK-8 assay.
(§2) Cells were cultured in DMEM or RPMI 1640 medium with 10% FBS and 1% penicillin/streptomycin at 37 °C and 5% CO2. A CCK-8 assay was performed with several human cancer cell lines, including A549, Huh-7, MCF-7, HCT-116, and SKOV3, according to the instructions. Cells were plated at a density of 1,000–3,000 cells per well in a 96-well plate. After 24-h incubation, cells were treated with 40 μM compounds for 48 h or 50 μM compounds for 72 h. Cell viability was measured by adding 10 μL per well of CCK-8 reagent, which was dissolved in the cell culture medium, for 1 hour. Absorbance was taken at 450 nm using a microplate reader. The IC50 values of the compounds were further determined. Cells were seeded in a 96-well plate at a density of 1 × 10^3 cells/well. After adhering overnight, cells treated with […] concentrations (10 μM, 20 μM, 40 µM, or 80 μM) were used to draw the dose–response curve, and IC50 values were calculated by GraphPad Prism software. The CCK-8 assay was performed in triplicate, and each experiment was repeated at least three times. The results were expressed as mean ± SEM, and P < 0.05 was considered statistically significant.

For data set [2], the system named is HCT116 colon cancer cells. Also noted: method as in Mohammed et al., 2022. The conditions noted are these: ref Mohammed et al., 2022; read-out: Cytotoxicity against HCT116, IC50; cited from earlier work.
A further data set has as its system MCF-7 (breast cancer). As to the kind of experiment: CCK-8 cell viability, MCF-7. Type of data set: cell-based. The conditions noted are these: Homo sapiens, MCF7, 72 h. How it is done: as §1, §2
For the next data set, the system named is A549 (lung cancer). As to the kind of experiment: CCK-8 cell viability, A549. Type of data set: cell-based. To be noted: Homo sapiens, 72 h. As for the experimental part: as §1, §2
A short description of data set [3]: CCK-8 cell viability, L02. Type of data set: cell-based. The conditions noted are these: human, L02 normal liver cells.

As usually defined, the IC50 is the midpoint of a concentration-inhibition curve. Compound `O=c1[nH]cc(F)c(=O)[nH]1` [5-fluorouracil, reference compound] came in with an IC50 in data set [1] of 21 ± 6.37 µM.

`COc1cc(/C=C/C(=O)c2ccc(-n3cc(CN4CCN(c5cc6c(cc5F)c(=O)c(C(=O)O)cn6C5CC5)CC4)nn3)cc2)cc(OC)c1OC` [compound 4j]: in data set [2], the IC50 was 2.53 µM.

For orientation: viability means a read-out of living cells in per cent, often relative to untreated cells. Consider `O=C1COc2cc(NC(=O)c3cccc(-c4cn(Cc5c(Cl)cccc5Cl)nn4)c3)ccc2N1` [compound c1, 3-(1-(2,6-dichlorobenzyl)-1H-1,2,3-triazol-4-yl)-N-(3-oxo-3,4-dihydro-2H-benzo[b][1,4]oxazin-7-yl)benzamide], for which the viability at 50 µM came out at 110 ± 3.84% in the data set on MCF-7 (breast cancer), 97.4 ± 3.35% with A549 (lung cancer) and 83.49 ± 0.78% in data set [1]. Moreover, the “Activity against Huh-7 cells (in words)” value in data set [1] is recorded as “limited activity”. In addition, the viability at 72 h, 50 µM in data set [3] is 84.1 ± 1.2%.

As to `O=C1COc2cc(NC(=O)c3cccc(-c4cn(Cc5cccc(Cl)c5)nn4)c3)ccc2N1` [compound c2, 3-(1-(3-chlorobenzyl)-1H-1,2,3-triazol-4-yl)-N-(3-oxo-3,4-dihydro-2H-benzo[b][1,4]oxazin-7-yl)benzamide], the viability at 50 µM came out at 103 ± 1.63% with MCF-7 (breast cancer), 95.6 ± 2.98% in the data set on A549 (lung cancer) and 17.5 ± 1.15% in data set [1]. The IC50 in data set [1] was found to be 33.4 ± 0.8 µM. Further, the viability at 72 h, 50 µM in data set [3] is 103 ± 2.36%.

For `O=C1COc2cc(NC(=O)c3cccc(-c4cn(Cc5ccccc5F)nn4)c3)ccc2N1` [compound c3, 3-(1-(2-fluorobenzyl)-1H-1,2,3-triazol-4-yl)-N-(3-oxo-3,4-dihydro-2H-benzo[b][1,4]oxazin-7-yl)benzamide], the values for the viability at 50 µM (in the data set with MCF-7 (breast cancer); in the data set with A549 (lung cancer); in data set [1]) were 108.3 ± 0.68%, 92.2 ± 3.87% and 12.1 ± 0.58%, respectively. The compound also had an IC50 in data set [1] of 43.41 ± 0.08 µM. In addition, the viability at 72 h, 50 µM in data set [3] turned out to be 101 ± 3.04%.

Take `O=C1COc2cc(NC(=O)c3cccc(-c4cn(Cc5ccc(I)cc5)nn4)c3)ccc2N1` [compound c4, 3-(1-(4-iodobenzyl)-1H-1,2,3-triazol-4-yl)-N-(3-oxo-3,4-dihydro-2H-benzo[b][1,4]oxazin-7-yl)benzamide]: the values for the viability at 50 µM (with MCF-7 (breast cancer); in the data set on A549 (lung cancer); in data set [1]) were 95.9 ± 2.14%, 94 ± 1.88% and 21.4 ± 4.91%, respectively. Besides, the IC50 in data set [1] was 33.21 ± 0.11 µM. Moreover, the viability at 72 h, 50 µM in data set [3] is 115.2 ± 0.81%.

Consider `Cc1cc(C)cc(Cn2cc(-c3cccc(C(=O)Nc4ccc5c(c4)OCC(=O)N5)c3)nn2)c1` [compound c6, 3-(1-(3,5-dimethylbenzyl)-1H-1,2,3-triazol-4-yl)-N-(3-oxo-3,4-dihydro-2H-benzo[b][1,4]oxazin-7-yl)benzamide], for which the viability at 50 µM is 84.8 ± 3.5% with MCF-7 (breast cancer), 81.6 ± 5.09% in the data set with A549 (lung cancer) and 25.6 ± 1.32% in data set [1]. Moreover, in data set [1], the IC50 was > 50 µM. Also, the viability at 72 h, 50 µM in data set [3] came to 99.7 ± 2.5%.

Take `N#Cc1ccccc1Cn1cc(-c2cccc(C(=O)Nc3ccc4c(c3)OCC(=O)N4)c2)nn1` [compound c7, 3-(1-(2-cyanobenzyl)-1H-1,2,3-triazol-4-yl)-N-(3-oxo-3,4-dihydro-2H-benzo[b][1,4]oxazin-7-yl)benzamide]: the viability at 50 µM was 89.2 ± 3.16% in the data set on MCF-7 (breast cancer), 87.7 ± 6.4% with A549 (lung cancer) and 89.1 ± 3.02% in data set [1]. In data set [1], the “Activity against Huh-7 cells (in words)” value is “limited activity”. Moreover, the viability at 72 h, 50 µM in data set [3] stood at 101 ± 3.14%.

Turning to `O=C1COc2cc(NC(=O)c3cccc(-c4cn(Cc5cccc(C(F)(F)F)c5)nn4)c3)ccc2N1` [compound c8, N-(3-oxo-3,4-dihydro-2H-benzo[b][1,4]oxazin-7-yl)-3-(1-(3-(trifluoromethyl)benzyl)-1H-1,2,3-triazol-4-yl)benzamide], the figures for the viability at 50 µM (in the data set with MCF-7 (breast cancer); with A549 (lung cancer); in data set [1]) were 101 ± 4.5%, 86.1 ± 5.46% and 13 ± 0.72%, respectively. This compound also registered an IC50 in data set [1] of 38.48 ± 0.24 µM. The viability at 72 h, 50 µM in data set [3] was determined as 103 ± 3.1%.

On to `O=C1COc2cc(NC(=O)c3cccc(-c4cn(Cc5ccc(F)c(Cl)c5)nn4)c3)ccc2N1` [compound c9, 3-(1-(3-chloro-4-fluorobenzyl)-1H-1,2,3-triazol-4-yl)-N-(3-oxo-3,4-dihydro-2H-benzo[b][1,4]oxazin-7-yl)benzamide], for which the viability at 50 µM in the data set on MCF-7 (breast cancer) was 110 ± 2.58%; in the data set with A549 (lung cancer), 86.2 ± 4.4%; in data set [1] it was 18.8 ± 0.56%. For the same compound, 43.1 ± 2.43 µM corresponded to half-maximal inhibition in data set [1] (IC50). The viability at 72 h, 50 µM in data set [3] worked out at 103 ± 3.98%.

`O=C1COc2cc(NC(=O)c3cccc(-c4cn(Cc5c(F)cccc5F)nn4)c3)ccc2N1` [compound c10, 3-(1-(2,6-difluorobenzyl)-1H-1,2,3-triazol-4-yl)-N-(3-oxo-3,4-dihydro-2H-benzo[b][1,4]oxazin-7-yl)benzamide]: the viability at 50 µM was found to be 81.6 ± 1.46% in the data set on MCF-7 (breast cancer), 61.1 ± 3.58% with A549 (lung cancer) and 24.9 ± 0.39% in data set [1]. For the same compound, the IC50 in data set [1] was > 50 µM. In addition, the viability at 72 h, 50 µM in data set [3] was found to be 68.5 ± 2.04%.

Regarding `N#Cc1ccc(F)cc1Cn1cc(-c2cccc(C(=O)Nc3ccc4c(c3)OCC(=O)N4)c2)nn1` [compound c11, 3-(1-(2-cyano-5-fluorobenzyl)-1H-1,2,3-triazol-4-yl)-N-(3-oxo-3,4-dihydro-2H-benzo[b][1,4]oxazin-7-yl)benzamide], the values for the viability at 50 µM (with MCF-7 (breast cancer); with A549 (lung cancer); in data set [1]) were 92.96 ± 0.64%, 85.4 ± 2.84% and 98 ± 1.22%, respectively. Besides, the “Activity against Huh-7 cells (in words)” value in data set [1] is “limited activity”. For the same compound, in data set [3], the viability at 72 h, 50 µM was found to be 111 ± 2.9%.

On to `O=C1COc2cc(NC(=O)c3cccc(-c4cn(Cc5ccccc5Br)nn4)c3)ccc2N1` [compound c12, 3-(1-(2-bromobenzyl)-1H-1,2,3-triazol-4-yl)-N-(3-oxo-3,4-dihydro-2H-benzo[b][1,4]oxazin-7-yl)benzamide], for which the viability at 50 µM in the data set on MCF-7 (breast cancer) stood at 87.15 ± 0.55%; in the data set on A549 (lung cancer), 87.7 ± 3.88%; in data set [1], 86.1 ± 1.69%. Also, the “Activity against Huh-7 cells (in words)” value in data set [1] was “limited activity”. Moreover, the viability at 72 h, 50 µM in data set [3] worked out at 105 ± 2.71%.

In the case of `O=C1COc2cc(NC(=O)c3cccc(-c4cn(Cc5ccc(Br)cc5F)nn4)c3)ccc2N1` [compound c13, 3-(1-(4-bromo-2-fluorobenzyl)-1H-1,2,3-triazol-4-yl)-N-(3-oxo-3,4-dihydro-2H-benzo[b][1,4]oxazin-7-yl)benzamide], the viability at 50 µM in the data set on MCF-7 (breast cancer) came out at 98.9 ± 2.03%; in the data set with A549 (lung cancer), 78.3 ± 2.72%; in data set [1], 17.7 ± 1.58%. The IC50 in data set [1] was > 50 µM. Moreover, the viability at 72 h, 50 µM in data set [3] came to 115 ± 1.35%.

`O=C1COc2cc(NC(=O)c3cccc(-c4cn(Cc5c(F)cccc5Cl)nn4)c3)ccc2N1` [compound c15, 3-(1-(2-chloro-6-fluorobenzyl)-1H-1,2,3-triazol-4-yl)-N-(3-oxo-3,4-dihydro-2H-benzo[b][1,4]oxazin-7-yl)benzamide]: the viability at 50 µM in the data set on MCF-7 (breast cancer) came to 84.6 ± 1.32%; with A549 (lung cancer) it was 86.5 ± 2.25%; in data set [1], 75.8 ± 2.97%. For the same compound, the “Activity against Huh-7 cells (in words)” value in data set [1] is recorded as “limited activity”. In addition, in data set [3], the viability at 72 h, 50 µM was 113.7 ± 1.08%.

With `O=C1COc2cc(NC(=O)c3cccc(-c4cn(Cc5cccc(Br)c5)nn4)c3)ccc2N1` [compound c17, 3-(1-(3-bromobenzyl)-1H-1,2,3-triazol-4-yl)-N-(3-oxo-3,4-dihydro-2H-benzo[b][1,4]oxazin-7-yl)benzamide], the viability at 50 µM came out at 90.41 ± 0.51% in the data set with MCF-7 (breast cancer), 71.3 ± 2.9% with A549 (lung cancer) and 19.2 ± 1.88% in data set [1]. In data set [1], the IC50 was 35.1 ± 1.84 µM. Besides, in data set [3], the viability at 72 h, 50 µM turned out to be 111.7 ± 0.92%.

With `O=C1COc2cc(NC(=O)c3cccc(-c4cn(Cc5cccc(I)c5)nn4)c3)ccc2N1` [compound c19, 3-(1-(3-iodobenzyl)-1H-1,2,3-triazol-4-yl)-N-(3-oxo-3,4-dihydro-2H-benzo[b][1,4]oxazin-7-yl)benzamide], the values for the viability at 50 µM (with MCF-7 (breast cancer); in the data set on A549 (lung cancer); in data set [1]) were 97.2 ± 2.06%, 80.5 ± 3.81% and 28.5 ± 3.64%, respectively. The compound further came in with an IC50 in data set [1] of 36.19 ± 0.09 µM. The viability at 72 h, 50 µM in data set [3] was found to be 103.4 ± 0.62%.

On to `Cc1ccccc1Cn1cc(-c2cccc(C(=O)Nc3ccc4c(c3)OCC(=O)N4)c2)nn1` [compound c20, 3-(1-(2-methylbenzyl)-1H-1,2,3-triazol-4-yl)-N-(3-oxo-3,4-dihydro-2H-benzo[b][1,4]oxazin-7-yl)benzamide], for which the figures for the viability at 50 µM (with MCF-7 (breast cancer); in the data set with A549 (lung cancer); in data set [1]) were 112 ± 4.59%, 97.85 ± 0.92% and 23.6 ± 0.25%, respectively. The compound further gave an IC50 in data set [1] of 45.9 ± 0.5 µM. In data set [3], the viability at 72 h, 50 µM is 119.1 ± 0.57%.

Regarding `COc1cccc2c1C(=O)c1c(O)c3c(c(O)c1C2=O)C[C@@](O)(C(=O)CO)C[C@@H]3O[C@H]1C[C@H](N)[C@H](O)[C@H](C)O1` [doxorubicin], in data set [2], the IC50 is 1.22 µM.
